Reference: patent US20220089521A1, “ETHYLENEDIAMINE COMPOUND AND USE THEREOF” (priority 2018, published 2022)
In brackets after ≈: the same amount, converted by molar mass. Several values for one entry are separate records, joined by “and”; a condition that tells them apart may be missing. Identical values can stand only once. Counter-ions that a name gives are not always drawn. Like-named read-outs stand apart in the source and are kept apart here.

Tests used:
[1] = tested on: Mycobacterium tuberculosis standard strain H37Rv; experiment: Microplate Alamar Blue Assay (MABA), minimum inhibitory concentration; format: cell-based; details: for MIC: Mycobacterium tuberculosis; for in vitro anti-tuberculosis activity (in words): experimental data in Table 1
[2] = H37Rv, 7H9 liquid medium, MABA, lowest drug concentration that prevented the color change (blue to pink), read-out: MIC

C(CNC1C2CC3CC(C2)CC1C3)NC1CC1 (stereo not drawn) [XHJ-5-18, N-(adamantan-2-yl)-N′-cyclopropyl-ethane-1,2-diamine]
MIC [1, 2]: > 32 µg/mL | melting point: 197 to 200 °C

CC(C)=CCC/C(C)=C/CN(CCNC1C2CC3CC(C2)CC1C3)C(=O)/C=C(\C)CCC=C(C)C (stereo not drawn) [XHJ-3-11, N-adamantan-2-yl-N′,N′-(3,7-dimethyl-oct-2,6-dienyl)-(3,7-dimethyl-oct-2,6-dienoyl)-ethane-1,2-diamine]
MIC ([1]; H37RV): > 32 µg/mL

CC(C)=CCC/C(C)=C/CN(CCN(Cc1ccccc1)C1C2CC3CC(C2)CC1C3)Cc1ccccc1 (stereo not drawn) [XHJ-4-11, N,N-(adamantan-2-yl)-benzyl-N′,N′-(3,7-dimethyl-oct-2,6-dienyl)-benzyl-ethane-1,2-diamine]
MIC ([1]; H37RV): 30.8 µg/mL (≈ 60.3 µM)

CC(C)=CCC/C(C)=C/CN(CCN)S(=O)(=O)c1ccc(C)cc1.Cl [XHJ-2-45, N-geranyl-N-(2-aminoethyl)-p-toluenesulfonamide hydrochloride]
MIC [1, 2]: 31.5 µg/mL | melting point: 134 to 137 °C

CC(C)=CCC/C(C)=C/CNCC(=O)NC1C2CC3CC(C2)CC1C3.Cl (stereo not drawn) [XHJ-2-37, N-adamantan-2-yl-2-(3,7-dimethyl-oct-2,6-dienylamino)-acetamide hydrochloride]
MIC ([1]; H37RV): < 0.5 µg/mL | in vitro anti-tuberculosis activity (in words) [1]: good activity | melting point: 168 to 172 °C

CC(C)=CCC/C(C)=C/CN(CCN)C1C2CC3CC(C2)CC1C3 (stereo not drawn) [XHJ-3-45, N,N-(adamantan-2-yl)-(3,7-dimethyl-oct-2,6-dienyl)-ethane-1,2-diamine]
MIC ([1]; H37RV): < 0.5 µg/mL | in vitro anti-tuberculosis activity (in words) [1]: better activity | melting point: 102 to 104 °C

NNC(=O)c1ccncc1 [INH, isoniazid, reference compound]
MIC [1, 2]: 0.05 µg/mL (≈ 0.365 µM)

CC(C)=CCC/C(C)=C/CN(CCNC1C2CC3CC(C2)CC1C3)C(=O)CCc1c[nH]c2ccccc12 (stereo not drawn) [XHJ-3-27, N-adamantan-2-yl-N′,N′-(3-indolylpropionyl)-(3,7-dimethyl-oct-2,6-dienyl)-ethane-1,2-diamine]
MIC ([1]; H37RV): 1.96 µg/mL (≈ 3.91 µM) | in vitro anti-tuberculosis activity (in words) [1]: good activity

CCCCCCCCCCC(=O)N(C/C=C(\C)CCC=C(C)C)CCNC1C2CC3CC(C2)CC1C3 (stereo not drawn) [XHJ-3-31, N-adamantan-2-yl-N′,N′-undecanoyl-(3,7-dimethyl-oct-2,6-dienyl)-ethane-1,2-diamine]
MIC ([1]; H37RV): 2.84 µg/mL (≈ 5.7 µM) | in vitro anti-tuberculosis activity (in words) [1]: good activity

CCCCCCCCN(C/C=C(\C)CCC=C(C)C)CCN(CCCCCCCC)C1C2CC3CC(C2)CC1C3 (stereo not drawn) [XHJ-4-15, N,N-(adamantan-2-yl)-octyl-N′,N′-(3,7-dimethyl-oct-2,6-dienyl)-octyl-ethane-1,2-diamine]
MIC ([1]; H37RV): > 32 µg/mL

CCS(=O)(=O)N(C/C=C(\C)CCC=C(C)C)CCN.Cl [XHJ-2-39, N-geranyl-N-(2-aminoethyl)ethylsulfonamide hydrochloride]
MIC [1, 2]: > 32 µg/mL | melting point: 103 to 106 °C

CCS(=O)(=O)N(C/C=C(\C)CCC=C(C)C)CCNC1C2CC3CC(C2)CC1C3.Cl (stereo not drawn) [XHJ-3-1, N-adamantan-2-yl-N′,N′-ethylsulfonyl-(3,7-dimethyl-oct-2,6-dienyl)-ethane-1,2-diamine hydrochloride]
MIC ([1]; H37RV): 6.96 µg/mL | in vitro anti-tuberculosis activity (in words) [1]: good activity | melting point: 108 to 112 °C and 103 to 106 °C

CO[C@H]1/C=C/O[C@@]2(C)Oc3c(C)c(O)c4c(O)c(c(/C=N/N5CCN(C)CC5)c(O)c4c3C2=O)NC(=O)/C(C)=C\C=C\[C@H](C)[C@H](O)[C@@H](C)[C@@H](O)[C@@H](C)[C@H](OC(C)=O)[C@@H]1C [RFP, rifampin, reference compound]
MIC [1, 2]: 0.048 µg/mL (≈ 0.0583 µM)

CCCCCCCCNCCNC1C2CC3CC(C2)CC1C3 (stereo not drawn) (as salt: hydrochloride) [XHJ-5-3, N-(adamantan-2-yl)-N′-octyl-ethane-1,2-diamine dihydrochloride]
melting point: 224 to 226 °C

CC(C)=CCC/C(C)=C/CNCCNC(c1ccccc1)c1cccnc1 (stereo not drawn) [XHJ-5-8, N-(phenyl-pyridin-3-yl-methyl)-N′-(3,7-dimethyl-oct-2,6-dienyl)-ethane-1,2-diamine]
MIC ([1]; H37RV): 16 µg/mL (≈ 44 µM) | in vitro anti-tuberculosis activity (in words) [1]: better activity

COc1cc(C(=O)N(C/C=C(\C)CCC=C(C)C)CCNC2C3CC4CC(C3)CC2C4)cc(OC)c1OC (stereo not drawn) [XHJ-3-29, N-adamantan-2-yl-N′,N′-(3,4,5-trimethoxybenzoyl)-(3,7-dimethyl-oct-2,6-dienyl)-ethane-1,2-diamine]
MIC ([1]; H37RV): 3.91 µg/mL (≈ 7.45 µM) | in vitro anti-tuberculosis activity (in words) [1]: good activity

CC(C)=CCC/C(C)=C/CN(CCNC1C2CC3CC(C2)CC1C3)S(=O)(=O)c1ccc(C)cc1.Cl (stereo not drawn) [XHJ-3-3, N-adamantan-2-yl-N′,N′-p-toluenesulfonyl-(3,7-dimethyl-oct-2,6-dienyl)-ethane-1,2-diamine hydrochloride]
MIC ([1]; H37RV): 3.76 µg/mL | in vitro anti-tuberculosis activity (in words) [1]: good activity | melting point: 179 to 182 °C

CCCCCCNCCNC1C2CC3CC(C2)CC1C3 (stereo not drawn) [XHJ-5-5, N-(adamantan-2-yl)-N′-hexyl-ethane-1,2-diamine dihydrochloride]
MIC ([1]; H37RV): 0.982 µg/mL | in vitro anti-tuberculosis activity (in words) [1]: better activity

CCCCCCNCCNC1C2CC3CC(C2)CC1C3 (stereo not drawn) (as salt: hydrochloride) [XHJ-5-5, N-(adamantan-2-yl)-N′-hexyl-ethane-1,2-diamine dihydrochloride]
melting point: 212 to 216 °C

CC(C)=CCC/C(C)=C/C(=O)NCCNC1C2CC3CC(C2)CC1C3.Cl (stereo not drawn) [XHJ-2-32, 3,7-dimethyl-oct-2,6-dienoic acid [2-(adamantan-2-yl-amino)ethyl]amide hydrochloride]
MIC ([1]; H37RV): 7.75 µg/mL | in vitro anti-tuberculosis activity (in words) [1]: good activity | melting point: 150 to 164 °C

CCCCCCCCNCCNC1C2CC3CC(C2)CC1C3 (stereo not drawn) [XHJ-5-3, N-(adamantan-2-yl)-N′-octyl-ethane-1,2-diamine dihydrochloride]
MIC ([1]; H37RV): 0.986 µg/mL | in vitro anti-tuberculosis activity (in words) [1]: better activity

CC(C)=CCC/C(C)=C/CN(CCN(C(=O)c1c[nH]c2ccccc12)C1C2CC3CC(C2)CC1C3)C(=O)c1c[nH]c2ccccc12 (stereo not drawn) [XHJ-3-15, N,N-adamantan-2-yl-(3-indolylformyl)-N′,N′-(3,7-dimethyl-oct-2,6-dienyl)-(3-indolylformyl)-ethane-1,2-diamine]
MIC ([1]; H37RV): > 32 µg/mL | melting point: 248 to 252 °C

CCS(=O)(=O)NCCNC1C2CC3CC(C2)CC1C3 (stereo not drawn) [XHJ-3-46, N-(adamantan-2-yl)-N′-ethylsulfonyl-ethane-1,2-diamine]
MIC [1, 2]: > 32 µg/mL

CC(C)=CCC/C(C)=C/CNCCNC(c1ccccn1)c1ccccn1 [XHJ-5-14, N-(dipyridin-2-yl-methyl)-N′-(3,7-dimethyl-oct-2,6-dienyl)-ethane-1,2-diamine]
MIC ([1]; H37RV): 4 µg/mL (≈ 11 µM) | in vitro anti-tuberculosis activity (in words) [1]: better activity
